Results from patent US11198692B2, “Dihydro-pyrrolo-pyridine derivatives” (Pfizer Inc., priority 2017, dated 2021).

Molecular target: T1, Human M4 receptors (Homo sapiens, UniProt P08173)
T1 construct: expressed in transfected cells
T1 sequence (P08173 1-479): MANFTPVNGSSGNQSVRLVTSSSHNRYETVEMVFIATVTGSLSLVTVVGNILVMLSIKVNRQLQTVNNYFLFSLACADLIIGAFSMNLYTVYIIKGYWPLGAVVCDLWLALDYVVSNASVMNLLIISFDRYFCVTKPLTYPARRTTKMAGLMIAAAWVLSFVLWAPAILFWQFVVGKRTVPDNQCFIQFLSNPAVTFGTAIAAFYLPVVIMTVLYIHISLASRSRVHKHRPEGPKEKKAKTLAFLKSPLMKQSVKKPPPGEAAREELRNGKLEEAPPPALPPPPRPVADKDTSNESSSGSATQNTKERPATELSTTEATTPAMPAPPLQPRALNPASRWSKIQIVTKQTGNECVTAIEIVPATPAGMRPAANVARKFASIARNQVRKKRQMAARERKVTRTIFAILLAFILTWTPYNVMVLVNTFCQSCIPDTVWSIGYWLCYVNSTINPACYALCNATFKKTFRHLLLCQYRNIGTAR
Assay: M4 PAM cAMP assay (GloSensor)
Type: cell-based
Conditions: HEK293 GloSensor cells expressing hM4, with EC20 acetylcholine and isoproterenol, geometric mean of 2-4 determinations unless footnoted (b: >=5, c: single); for Emax / EC50 Mean Asymptote Maximum (%): Emax = maximum asymptote of fitted dose response curve; for Emax: read-out: EC50 Mean Asymptote Maximum (%)
Description: The M4 cAMP assay was designed to determine the potency and efficacy of muscarinic positive allosteric modulators (PAMs). Human M4 receptors were stably expressed in Human embryonic kidney (HEK293) cells expressed with the Promega GloSensor™ cAMP technology.
HEK293 GloSensor cells expressing hM4 cells were cultured in growth media containing DMEM with 10% FBS, 1% Penicillin/Streptomycin, 500 μg/mL G418, 200 μg/mL Hygomycin B, and 1% Glutamax. When cells had grown to 80%-90% confluency, cells were harvested and seeded at a density of 25,000 cells/40 μL well, in a 384 white walled plates (Becton Dickinson 356661). Plates were incubated at 37 degrees C. and 5% CO2 for use after 24 hours.
Compound Preparation for Activator Screen:
Test compounds were initially prepared as 100% DMSO stock solutions, then transferred and serially diluted in 384-well compound plates (Matrix #4325). Each compound was tested at 10 concentrations in duplicate per experiment. Compound plates are spotted with 0.2 μL/well activator at 400 times the final assay concentration. Positive and negative controls for the compound alone activator response was 10 μM acetylcholine (Sigma # A2661) and DMSO, respectively. EC20 of acetylcholine was also used to define PAM activities.
Promega GloSensor™reagent (Promega # E1291) had previously been aliquotted. For each experiment, a stock solution of GloSensor™ was thawed out and equilibration medium was prepared with 88% CO2-independent media (Invitrogen #18045088), 10% fetal bovine serum and 2% GloSensor™ cAMP Reagent stock solution. Stock solution was mixed. Culture media in cell plates was discarded, then replaced with 40 μL/well pre-warmed equilibration media, then incubated in the dark at room temperature for 2 hours. During the incubation, stimulation media containing agonist and EC20 acetylcholine was prepared. CO2-independent media containing 50 […] Isoproterenol representing an EC80 of b-adrenergic receptor activity (Sigma #16504, 400 times final concentration) and EC20 acetylcholine in 1.25% DMSO was added to all columns of the compound plate, with the exception of column 12 to allow for EC0 control. […] Compounds are now 5 times the final assay concentration. The plate was mixed using a plate agitator. At the end of the 2 hour GloSensor™ incubation, add 10 μL of the CO2-independent media containing agonist, EC20 acetylcholine and isoproterenol to the cell plate. Cell plate was then incubated for 10 minutes at room temperature, and then read using an EnVision plate reader (Perkin Elmer).
Data was exported from the EnVision plate reader. The percent effect for each well was determined using the mean values for the positive and negative controls on each plate for each read, specifically 100*(compound−negative control)/(positive control−negative control). Dose response curves were fitted to the compound percent effect data using a 4-parameter logistic fit model. Data was reported as EC50 and Emax, with the Emax as the maximum asymptote of the fitted dose response curve.

Row | Emax [%] | EC50 [nM] | EC50 Mean Asymptote Maximum (%) | Compound
1 | 94.8 | < 1.7 | – | CNc1nc(C)c(C)c2c1CN(C(=O)C[C@H]1C[C@@H]1c1cncnc1)C2 (racemic) [Example 28, 1-[6,7-dimethyl-4-(methylamino)-1,3-dihydro-2H-pyrrolo[3,4-c]pyridin-2-yl]-2-[trans-2-(pyrimidin-5-yl)cyclopropyl]ethanone]
2 | 128 | 5.32 | – | CNc1nc(C)c(C)c2c1CN(C(=O)C[C@@H]1C[C@H]1c1ccc(Cl)nc1)C2 (racemic) [Example 33, 2-[trans-2-(6-chloropyridin-3-yl)cyclopropyl]-1-[6,7-dimethyl-4-(methylamino)-1,3-dihydro-2H-pyrrolo[3,4-c]pyridin-2-yl]ethanone]
3 | 116 | 6.96 | – | CNc1nc(C)c(C)c2c1CN(C(=O)CC1CN(c3ccnc(C(F)(F)F)c3)C1)C2C (racemic) [Example 42, 2-{1-[2-(trifluoromethyl)pyridin-4-yl]azetidin-3-yl}-1-[1,6,7-trimethyl-4-(methylamino)-1,3-dihydro-2H-pyrrolo[3,4-c]pyridin-2-yl]ethanone]
4 | 105 | 3.56 | – | CNc1nc(C)c(C)c2c1CN(C(=O)C[C@@H]1C[C@H]1c1ccc(C)nc1)C2 (racemic) [Example 45, 1-[6,7-dimethyl-4-(methylamino)-1,3-dihydro-2H-pyrrolo[3,4-c]pyridin-2-yl]-2-[trans-2-(6-methylpyridin-3-yl)cyclopropyl]ethanone]
5 | 96.3 | 690 | – | CNc1nc(C)c(C)c2c1CN(C(=O)C[C@@H]1C[C@H]1c1cncnc1)C2 (single isomer, unassigned) [Example 29, 1-[6,7-dimethyl-4-(methylamino)-1,3-dihydro-2H-pyrrolo[3,4-c]pyridin-2-yl]-2-[trans-2-(pyrimidin-5-yl)cyclopropyl]ethanone]
6 | – | 1.58 | 95.1% | CNc1nc(C)c(C)c2c1CN(C(=O)C[C@@H]1C[C@H]1c1cncnc1)C2 (single isomer, unassigned) [Example 30, 1-[6,7-dimethyl-4-(methylamino)-1,3-dihydro-2H-pyrrolo[3,4-c]pyridin-2-yl]-2-[trans-2-(pyrimidin-5-yl)cyclopropyl]ethanone]
7 | – | 6.77 | 121^c % | CNc1nc(C)c(C)c2c1CN(C(=O)C[C@@H]1C[C@H]1c1ccc(F)cc1)C2 (single isomer, unassigned) [Example 40, 1-[6,7-dimethyl-4-(methylamino)-1,3-dihydro-2H-pyrrolo[3,4-c]pyridin-2-yl]-2-[trans-2-(4-fluorophenyl)cyclopropyl]ethanone]
8 | – | 783 | 145^c % | CNc1nc(C)c(C)c2c1CN(C(=O)C[C@@H]1C[C@H]1c1ccc(F)cc1)C2 (single isomer, unassigned) [Example 41, 1-[6,7-dimethyl-4-(methylamino)-1,3-dihydro-2H-pyrrolo[3,4-c]pyridin-2-yl]-2-[trans-2-(4-fluorophenyl)cyclopropyl]ethanone]
9 | – | 3670 | 152^c % | CNc1nc(C)c(C)c2c1CN(C(=O)CC1CN(c3ccnc(C(F)(F)F)c3)C1)C2C (single isomer, unassigned) [Example 43, 2-{1-[2-(trifluoromethyl)pyridin-4-yl]azetidin-3-yl}-1-[1,6,7-trimethyl-4-(methylamino)-1,3-dihydro-2H-pyrrolo[3,4-c]pyridin-2-yl]ethanone]
10 | – | 1.8 | 107^c % | CNc1nc(C)c(C)c2c1CN(C(=O)CC1CN(c3ccnc(C(F)(F)F)c3)C1)C2C (single isomer, unassigned) [Example 44, 2-{1-[2-(trifluoromethyl)pyridin-4-yl]azetidin-3-yl}-1-[1,6,7-trimethyl-4-(methylamino)-1,3-dihydro-2H-pyrrolo[3,4-c]pyridin-2-yl]ethanone]

Further lines, the compound ahead of its results:

Row | Compound | Emax [%] | EC50 [nM] | EC50 Mean Asymptote Maximum (%)
11 | Cc1nc(N)c2c(c1C)CN(C(=O)C[C@@H]1C[C@H]1c1ccc(F)nc1)C2 (relative stereo) [Example 7, 1-(4-Amino-6,7-dimethyl-1,3-dihydro-2H-pyrrolo[3,4-c]pyridin-2-yl)-2-[trans-2-(6-fluoropyridin-3-yl)cyclopropyl]ethanone] | 109 | 6.45 | –
12 | Cc1nc(N)c2c(c1C)CN(C(=O)C[C@@H]1C[C@H]1c1ccc(F)nc1)C2 (single isomer, unassigned) [Example 8, 1-(4-Amino-6,7-dimethyl-1,3-dihydro-2H-pyrrolo[3,4-c]pyridin-2-yl)-2-[trans-2-(6-fluoropyridin-3-yl)cyclopropyl]ethanone] | 99 | 1.24 | –
13 | Cc1nc(N)c2c(c1C)CN(C(=O)C[C@@H]1C[C@H]1c1ccc(F)nc1)C2 (single isomer, unassigned) [Example 9, 1-(4-Amino-6,7-dimethyl-1,3-dihydro-2H-pyrrolo[3,4-c]pyridin-2-yl)-2-[trans-2-(6-fluoropyridin-3-yl)cyclopropyl]ethanone] | – | 99.4 | 111%
14 | CNc1nc(C)c(C)c2c1CN(C(=O)C[C@@H]1C[C@H]1c1cccnc1)C2 (single isomer, unassigned) [Example 10, 1-[6,7-Dimethyl-4-(methylamino)-1,3-dihydro-2H-pyrrolo[3,4-c]pyridin-2-yl]-2-[trans-2-(pyridin-3-yl)cyclopropyl]ethanone] | 114 | 197 | –
15 | CNc1nc(C)c(C)c2c1CN(C(=O)C[C@@H]1C[C@H]1c1cccnc1)C2 (single isomer, unassigned) [Example 11, 1-[6,7-Dimethyl-4-(methylamino)-1,3-dihydro-2H-pyrrolo[3,4-c]pyridin-2-yl]-2-[trans-2-(pyridin-3-yl)cyclopropyl]ethanone] | – | 1.6 | 94.8^b %
16 | CNc1nc(C)c(C)c2c1CN(C(=O)C[C@@H]1C[C@H]1c1ccc(F)nc1)C2 (single isomer, unassigned) [Example 15, 1-[6,7-dimethyl-4-(methylamino)-1,3-dihydro-2H-pyrrolo[3,4-c]pyridin-2-yl]-2-[trans-2-(6-fluoropyridin-3-yl)cyclopropyl]ethanone] | – | 795 | 148%
17 | CNc1nc(C)c(C)c2c1CN(C(=O)C[C@@H]1C[C@H]1c1ccc(F)nc1)C2 (single isomer, unassigned) [Example 16, 1-[6,7-dimethyl-4-(methylamino)-1,3-dihydro-2H-pyrrolo[3,4-c]pyridin-2-yl]-2-[trans-2-(6-fluoropyridin-3-yl)cyclopropyl]ethanone] | – | 0.838 | 102^b %
18 | Cc1c2c(c(=O)n(C)c1C)CN(C(=O)C[C@@H]1C[C@H]1c1cccnc1)C2 (single isomer, unassigned) [Example 26, 5,6,7-trimethyl-2-{[trans-2-(pyridin-3-yl)cyclopropyl]acetyl}-1,2,3,5-tetrahydro-4H-pyrrolo[3,4-c]pyridin-4-one] | 90.8 | 2140 | –
19 | Cc1c2c(c(=O)n(C)c1C)CN(C(=O)C[C@@H]1C[C@H]1c1cccnc1)C2 (single isomer, unassigned) [Example 27, 5,6,7-trimethyl-2-{[trans-2-(pyridin-3-yl)cyclopropyl]acetyl}-1,2,3,5-tetrahydro-4H-pyrrolo[3,4-c]pyridin-4-one] | – | 9.99 | 95.3%
